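48-hour exposure; five concentrations; linearly interpolated endpoints. GI50: concentration for 50% inhibition of growth.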 Active and inactive are the calls of the source. Rule as the data show it: active = GI50 up to about 1.1 µM and inactive = higher.
What was measured:
Experiment in all cases: DTP human tumour cell line panel, 48 h
SK-OV-3 = system: SK-OV-3
HCC 2998 = system: HCC 2998
A549 = system: A549
SF-268 = system: SF-268
SR = system: SR
SW-620 = system: SW-620
OVCAR-3 = system: OVCAR-3
NCI/ADR-RES = system: NCI/ADR-RES
SN12C = system: SN12C
HOP-92 = system: HOP-92
RXF 393 = system: RXF 393
DU-145 = system: DU-145
HCT-15 = system: HCT-15
UACC-257 = system: UACC-257
IGROV-1 = system: IGROV-1
MCF7 = system: MCF7
LOX IMVI = system: LOX IMVI
SF-539 = system: SF-539
M14 = system: M14
RPMI-8226 = system: RPMI-8226
HCT-116 = system: HCT-116
SF-295 = system: SF-295
PC-3 = system: PC-3
Hs-578T = system: Hs-578T
NCI-H226 = system: NCI-H226
OVCAR-5 = system: OVCAR-5
CAKI-1 = system: CAKI-1
OVCAR-4 = system: OVCAR-4
OVCAR-8 = system: OVCAR-8
T47D = system: T47D
BT-549 = system: BT-549
TK-10 = system: TK-10
COLO 205 = system: COLO 205
HOP-62 = system: HOP-62
SNB-75 = system: SNB-75
MOLT-4 = system: MOLT-4
HT-29 = system: HT-29
KM12 = system: KM12
K562 = system: K562
NCI-H460 = system: NCI-H460
NCI-H522 = system: NCI-H522
CCRF-CEM = system: CCRF-CEM
EKVX = system: EKVX
SNB-19 = system: SNB-19
Malme-3M = system: Malme-3M
786-0 = system: 786-0
UO-31 = system: UO-31
MDA-MB-435 = system: MDA-MB-435
A498 = system: A498
SK-MEL-28 = system: SK-MEL-28
ACHN = system: ACHN
HL-60 = system: HL-60
SK-MEL-2 = system: SK-MEL-2
NCI-H23 = system: NCI-H23
MDA-N = system: MDA-N
MDA-MB-231 = system: MDA-MB-231
UACC-62 = system: UACC-62
SK-MEL-5 = system: SK-MEL-5
U-251 = system: U-251

Measured: GI50

c1ccc(CNc2c3c(nc4ccccc24)CCC3)cc1
inactive: SK-OV-3 15.4 µM | HCC 2998 13.5 µM | A549 15.1 µM | SF-268 21.7 µM | SR 13.4 µM | SW-620 11.9 µM | OVCAR-3 12.2 µM | NCI/ADR-RES 14.2 µM | SN12C 16.4 µM | HOP-92 10.4 µM | RXF 393 14 µM | DU-145 21.5 µM | UACC-257 13.6 µM | IGROV-1 15.8 µM | MCF7 13.8 µM | LOX IMVI 14 µM | SF-539 14.5 µM | M14 13.7 µM | RPMI-8226 10 µM | HCT-116 9.1 µM | SF-295 6.84 µM | PC-3 13.2 µM | Hs-578T 27.2 µM | NCI-H226 17.1 µM | OVCAR-5 15.5 µM | CAKI-1 15.3 µM | OVCAR-4 15 µM | OVCAR-8 14.1 µM | T47D 12.7 µM | BT-549 17.9 µM | TK-10 13 µM | COLO 205 10.4 µM | HOP-62 8.97 µM | SNB-75 18 µM | MOLT-4 13.1 µM | HT-29 5.52 µM | KM12 15.6 µM | K562 5.58 µM | NCI-H460 10.6 µM | NCI-H522 15.7 µM | CCRF-CEM 3.79 µM | EKVX 12.1 µM | SNB-19 23 µM | Malme-3M 17.3 µM | 786-0 13.4 µM | UO-31 11.4 µM | MDA-MB-435 15.3 µM | A498 11.7 µM | SK-MEL-28 11.8 µM | ACHN 17.5 µM | SK-MEL-2 13.8 µM | NCI-H23 16.3 µM | MDA-N 14.7 µM | MDA-MB-231 12.9 µM | UACC-62 12.8 µM | SK-MEL-5 11.7 µM | U-251 14.9 µM
active: HL-60 30.3 nM
18.9 µM: HCT-15

COC(=O)C1=C(C)NC(C)=C(C(=O)OC)C1c1ccc(NO)cc1
10.9 µM: HCT-15
inactive: SK-OV-3 23.4 µM | HCC 2998 18.7 µM | A549 18.2 µM | SF-268 19 µM | SR 2.47 µM | SW-620 4.09 µM | OVCAR-3 12.9 µM | NCI/ADR-RES 18.8 µM | SN12C 18.7 µM | HOP-92 2.68 µM | RXF 393 15.8 µM | DU-145 19.1 µM | UACC-257 11 µM | IGROV-1 16.3 µM | MCF7 8.11 µM | LOX IMVI 5.68 µM | SF-539 15.8 µM | M14 14.6 µM | RPMI-8226 1.73 µM | HCT-116 7.59 µM | SF-295 17 µM | PC-3 13.4 µM | Hs-578T 10.8 µM | NCI-H226 17.3 µM | OVCAR-5 15.7 µM | CAKI-1 13 µM | OVCAR-4 10.6 µM | OVCAR-8 10.2 µM | T47D 7.23 µM | BT-549 13.2 µM | TK-10 16.5 µM | COLO 205 12.5 µM | HOP-62 14.6 µM | SNB-75 13.2 µM | MOLT-4 2.86 µM | HT-29 7.01 µM | KM12 17.1 µM | K562 1.86 µM | NCI-H460 14.9 µM | EKVX 19.5 µM | SNB-19 24.6 µM | Malme-3M 13 µM | 786-0 15.5 µM | UO-31 11.3 µM | MDA-MB-435 14.1 µM | A498 29.8 µM | SK-MEL-28 17.5 µM | ACHN 12.6 µM | HL-60 1530 nM | SK-MEL-2 17.1 µM | NCI-H23 21.3 µM | MDA-N 12.2 µM | MDA-MB-231 12.8 µM | UACC-62 13 µM | SK-MEL-5 15.4 µM | U-251 15.9 µM
active: NCI-H522 0.891 µM | CCRF-CEM 0.897 µM

From ChEMBL document CHEMBL1201862, “PubChem BioAssay data set” (2004)
